Test results reported in US7285642B2, “Composition and method for modulating dendritic cell-T cell interaction” (Katholieke Universiteit Nijmegen, priority 2000, dated 2007).

Legend:
DC-SIGN [1] = target: T1, DC-SIGN (Homo sapiens, UniProt Q9NNX6); assay: Binding of DC-SIGN to ICAM-2 and ICAM-3 expressing K562 cells (FIG. 8); format: cell-based
T1 construct: expressed in transfected cells; host or cells: COS7 cells, transient transfection with pRc/CMV-DC-SIGN (DEAE dextran)
T1 sequence (Q9NNX6 1-404): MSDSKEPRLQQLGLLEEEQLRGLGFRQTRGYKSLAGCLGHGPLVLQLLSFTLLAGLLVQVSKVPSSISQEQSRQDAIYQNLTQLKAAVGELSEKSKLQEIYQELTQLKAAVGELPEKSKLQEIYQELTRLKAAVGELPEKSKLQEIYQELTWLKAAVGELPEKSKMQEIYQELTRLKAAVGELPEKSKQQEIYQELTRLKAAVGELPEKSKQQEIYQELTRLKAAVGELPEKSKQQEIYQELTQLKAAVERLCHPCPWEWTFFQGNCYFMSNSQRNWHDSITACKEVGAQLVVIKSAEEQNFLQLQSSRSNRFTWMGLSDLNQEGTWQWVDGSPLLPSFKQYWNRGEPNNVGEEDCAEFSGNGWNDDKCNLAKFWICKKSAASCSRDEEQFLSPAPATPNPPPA

adhesion of DC to ICAM-3 = assay: Fluorescent beads adhesion assay: adhesion of DC to ICAM-3Fc beads; format: cell-based, human; settings: 5 mM
Method: Exploiting a novel flowcytrometric adhesion assay involving ICAM-3-Fc chimera coated fluorescent beads (Geijtenbeek et al.), the capacity of DC, resting peripheral blood lymphocytes (PBL) and monocytes to bind to this integrin ligand was tested. […] Freshly isolated PBL, monocytes and DC were incubated for 30 min. at 37° C. with either ICAM-1Fc or ICAM-3Fc fluorescent beads. After washing, the percentage of cells that bound beads was determined by flowcytometry. • 1B: Adhesion of leukocytes to ICAM-3 after activation of β2-integrins. Binding of fluorescent ICAM-3Fc beads was measured after 30 min. at 37° C. in the presence of either PMA 980 nM) or the activating anti-β2-integrin antibody KIM185 (10 μg/ml). Inhibition of the LFA-1 specific adhesion after PMA activation was determined in the presence of the blocking anti-LFA-1 antibody NKI-L15 (20 μg/ml). • 1C: Adhesion of DC to ICAM-3 in the presence of blocking antibodies (20 μg/ml) against β2-integrins (NKI-L19), β1-integrin (AIIB2), ICAM-3 (CBR-IC3/1, CBR-IC3/2) or in the presence of EDTA (5 mM) or EGTA (5 mM). The adhesion was determined as described in FIG. 1A.
DC were cultured from monocytes in the presence of GM-CSF and IL-4. […] Adhesion was determined as described in FIG. 1A. […]

DC-SIGN [2] = target: T1, DC-SIGN; assay: Adhesion of COS7-DC-SIGN cells to ICAM-3 beads; format: cell-based; settings: 5 mM
Excerpt: RT-PCR analysis with primers based on the gp120-binding C-type lectin sequence, on RNA isolated from DC yielded a PCR product of the expected length of 1237 nt. The DC-specific PCR product was cloned and sequencing confirmed 100% identity with the human gp120-binding lectin (FIG. 3B). Flowcytometric analysis of COS7 cells, transfected with the cDNA encoding the placenta gp120-binding C-type lectin, unequivocally proves that the gp120 binding C-type lectin is indeed identical to DC-SIGN (FIG. 4A). […] COS7 cells were transfected and the adhesion was determined as described in FIG. 1A, respectively. Adhesion of COS7-DC-SIGN cells to ICAM-3 was measured in the presence of EGTA (5 mM) and blocking antibodies against DC-SIGN (AZN-D1), ICAM-3 (CBR-IC3/1, CBR-IC3/2) and β2 integrinds (AZN-L19). A representative experiment out of 3 is shown (SD<5%). About 30% of the transfected COS7 cells are stained with anti-DC-SIGN-antibody and therefore express DC-SIGN. […]
Carboxylate-modified TransFluorSpheres (488/645 nm, 1.0 μm; Molecular Probes, Eugene, Oreg.) were coated with ICAM-1 Fc and ICAM-3 Fc as described previously (Geijtenbeek et al., 1999 submitted). […] Adhesion was determined by measuring the percentage of cells, which have bound fluorescent beads, by flowcytometry using the FACScan (Becton and Dickinson & Co., Oxnard, Calif.).

Compound	Inhibition of DC-SIGN binding to K562 cells expressing ICAM-2 or ICAM-3 (DC-SIGN [1])	Inhibition of adhesion of DC to ICAM-3Fc fluorescent beads (adhesion of DC to ICAM-3)	Inhibition of adhesion of COS7-DC-SIGN cells to ICAM-3 (DC-SIGN [2])
mannan	can be inhibited		
O=C(O)CN(CCN(CC(=O)O)CC(=O)O)CC(=O)O [EDTA]		completely blocked	
O=C(O)CN(CCOCCOCCN(CC(=O)O)CC(=O)O)CC(=O)O [EGTA]		completely blocked	blocks adhesion completely
